Values after ≈ are worked out from the molar mass of the structure shown. Like-named read-outs stand apart in the source and are kept apart here.
Experiments:
[1] = system: Streptococcus pyogenes 9960; test: MIC, standard agar-dilution assay; format: cell-based; details: 9960
Procedure: (§1) Certain of the derivatives are active against some gram-negative bacteria, such as Pasteurella species. The MIC's in Table II were determined by standard agar-dilution assays. The MIC's in Table III were obtained using a conventional broth-dilution microtiter test.

[2] = system: Streptococcus pyogenes C203; test: MIC, standard agar-dilution assay; format: cell-based; details: Streptococcus pyogenes, C203
Procedure: as §1

[3] = system: Streptococcus pneumoniae Park I; test: MIC, standard agar-dilution assay; format: cell-based; details: Streptococcus pneumoniae
Procedure: as §1

Escherichia coli TEM = test: MIC, standard agar-dilution assay; format: cell-based
How it was run: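 Antibacterial activity toward the gram-negative organism Escherichia coli was assessed by conventional agar dilution. The MIC, reported in ug/mL, is the minimum compound concentration on agar that prevents growth.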

[4] = system: Klebsiella pneumoniae X26; test: MIC, standard agar-dilution assay; format: cell-based
How it was run: (§2)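 Agar plates containing graded compound levels gave the Klebsiella value. Graded broth dilutions in microtiter plates gave the Pasteurella and Mycoplasma values.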

[5] = system: Staphylococcus aureus V41; test: MIC, standard agar-dilution assay; format: cell-based
Procedure: as §1

[6] = system: Klebsiella pneumoniae KAE; test: MIC, standard agar-dilution assay; format: cell-based
How it was run: (§3)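 Broth microdilution MICs cover P. hemolytica, P. multocida and M. gallisepticum. The agar-dilution MIC covers K. pneumoniae only.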

[7] = system: Streptococcus Group D X66; test: MIC, standard agar-dilution assay; format: cell-based
Procedure: as §1

[8] = system: Staphylococcus aureus X1.1; test: MIC, standard agar-dilution assay; format: cell-based; details: Staphylococcus aureus, X1.1
How it was run: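 A standard agar-dilution assay was used to test compounds against the Staphylococcus aureus isolate X1.1. Bacterial growth on agar with different compound concentrations was assessed, and the minimum inhibitory concentration was recorded in ug/mL.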

Escherichia coli EC14 = test: MIC, standard agar-dilution assay; format: cell-based
Procedure: as §1

[9] = system: Staphylococcus aureus S13E; test: microbe, parasite or virus in culture; format: cell-based
Procedure: (§4) The MIC's in Table II were determined by standard agar-dilution assays. The MIC's in Table III were obtained using a conventional broth-dilution microtiter test.

[10] = system: Staphylococcus epidermidis EPI1; test: microbe, parasite or virus in culture; format: cell-based
Procedure: as §4

[11] = system: Staphylococcus epidermidis EPI2; test: MIC, standard agar-dilution assay; format: cell-based; details: Staphylococcus epidermidis, EPI2
Procedure: as §4

[12] = system: Haemophilus influenzae C.L.; test: MIC, standard agar-dilution assay; format: cell-based; details: Haemophilus influenzae
Procedure: as §4

[13] = system: Staphylococcus aureus X400; test: MIC, standard agar-dilution assay; format: cell-based; details: Staphylococcus aureus, X400
Procedure: as §4

[14] = system: Haemophilus influenzae 76; test: MIC, standard agar-dilution assay; format: cell-based; details: Haemophilus influenzae, 76
Procedure: as §4

[15] = system: Streptococcus pyogenes C203; test: Protection of mice experimentally infected with S. pyogenes C203; format: in vivo
Procedure: Some of the derivatives of this invention have shown in vivo antimicrobial activity against experimentally-induced infections in laboratory animals. When two doses of test compound were administered to mice experimentally infected with S. pyogenes C203, the activity observed was measured as an ED50 value [effective dose in mg/kg to protect 50% of the test animals: see Warren Wick, et al., J. Bacteriol. 81, 233-235 (1961)].

[16] = system: Pasteurella hemolytica 22C; test: MIC, conventional broth-dilution microtiter test; format: cell-based
How it was run: as §3

[17] = system: Mycoplasma gallisepticum 34159; test: MIC, conventional broth-dilution microtiter test; format: cell-based; details: Mycoplasmoides gallisepticum
How it was run: as §3

Mycoplasma synoviae = test: MIC, conventional broth-dilution microtiter test; format: cell-based; details: Mycoplasmopsis synoviae
How it was run: as §2

[18] = system: Mycoplasma gallisepticum 41313; test: MIC, conventional broth-dilution microtiter test; format: cell-based; details: Mycoplasmoides gallisepticum
How it was run: as §3

[19] = system: Pasteurella hemolytica 23C; test: MIC, conventional broth-dilution microtiter test; format: cell-based
How it was run: as §3

[20] = system: Pasteurella hemolytica 41D; test: MIC, conventional broth-dilution microtiter test; format: cell-based
How it was run: as §3

Mycoplasma gallisepticum = test: MIC, conventional broth-dilution microtiter test; format: cell-based; details: Mycoplasmoides gallisepticum
How it was run: as §3

[21] = system: Pasteurella multocida 40G; test: MIC, conventional broth-dilution microtiter test; format: cell-based
How it was run: as §3

[22] = system: Pasteurella multocida 60A; test: MIC, conventional broth-dilution microtiter test; format: cell-based
How it was run: as §3

Staphylococcus aureus = test: MIC, conventional broth-dilution microtiter test; format: cell-based
Procedure: as §1

[23] = system: Pasteurella multocida 22A; test: MIC, conventional broth-dilution microtiter test; format: cell-based
How it was run: as §3

Mycoplasma hyorhinis = test: MIC, conventional broth-dilution microtiter test; format: cell-based
How it was run: as §2

[24] = system: Pasteurella multocida 68C; test: MIC, conventional broth-dilution microtiter test; format: cell-based
How it was run: as §3

[25] = system: Pasteurella multocida 17E; test: MIC, conventional broth-dilution microtiter test; format: cell-based
How it was run: as §3

Streptococcus sp. 80 = test: MIC, conventional broth-dilution microtiter test; format: cell-based
Procedure: as §1

[26] = C203, sc, read-out: ED50 Subcutaneous

CCC1CC(C)C(=O)C=CC(C)=CC(COC(=O)Cc2ccccc2)C(CC)OC(=O)CC(O)C(C)C1OC1OC(C)C(O)C(N(C)C)C1O (stereo not drawn) [Compound 41, 23-O-Phenylacetyl-20-deoxy-20-dihydro-OMT]
MIC [1]: 1 µg/mL (≈ 1.42 µM) | MIC [2]: 0.5 µg/mL (≈ 0.712 µM) | MIC [3]: 0.25 µg/mL (≈ 0.356 µM) | MIC (Escherichia coli TEM; Escherichia coli): 16 µg/mL (≈ 22.8 µM) | MIC ([4]; Klebsiella pneumoniae, X26): 4 µg/mL (≈ 5.7 µM) | MIC ([5]; Staphylococcus aureus, V41): 0.5 µg/mL (≈ 0.712 µM) | MIC ([6]; Klebsiella pneumoniae): > 128 µg/mL | MIC [7]: 1 µg/mL (≈ 1.42 µM) | MIC [8]: 0.5 µg/mL (≈ 0.712 µM) | MIC (Escherichia coli EC14; Escherichia coli, EC14): 128 µg/mL (≈ 182 µM) | MIC [9]: 0.5 µg/mL (≈ 0.712 µM) | MIC ([10]; Staphylococcus epidermidis, EPI1): 0.5 µg/mL (≈ 0.712 µM) | MIC [11]: 0.5 µg/mL (≈ 0.712 µM) | MIC [12]: 8 µg/mL (≈ 11.4 µM) | MIC [13]: 0.5 µg/mL (≈ 0.712 µM) | MIC [14]: 8 µg/mL (≈ 11.4 µM) | ED50 ([15]; C203, po, read-out: ED50 Oral): > 100 mg/kg | ED50 [15, 26]: > 25 mg/kg | MIC ([16]; Pasteurella, 22C): 12.5 µg/mL (≈ 17.8 µM) | MIC [17]; 34159: 50 µg/mL (≈ 71.2 µM) | MIC (Mycoplasma synoviae): 3.12 µg/mL (≈ 4.45 µM) | MIC [18]; 41313: 50 µg/mL (≈ 71.2 µM) | MIC ([19]; Pasteurella, 23C): 12.5 µg/mL (≈ 17.8 µM) | MIC ([20]; Pasteurella, 41D): 12.5 µg/mL (≈ 17.8 µM) | MIC (Mycoplasma gallisepticum): 3.12 µg/mL (≈ 4.45 µM) | MIC ([21]; Pasteurella multocida, 40G): 12.5 µg/mL (≈ 17.8 µM) | MIC ([22]; Pasteurella multocida, 60A): 3.12 µg/mL (≈ 4.45 µM) | MIC (Staphylococcus aureus): 0.78 µg/mL (≈ 1.11 µM) | MIC ([23]; Pasteurella multocida, 22A): 25 µg/mL (≈ 35.6 µM) | MIC (Mycoplasma hyorhinis; Mycoplasma): 50 µg/mL (≈ 71.2 µM) | MIC ([24]; Pasteurella multocida, 68C): 3.12 µg/mL (≈ 4.45 µM) | MIC ([25]; Pasteurella multocida, 17E): 12.5 µg/mL (≈ 17.8 µM) | MIC (Streptococcus sp. 80; Streptococcus, SP.80): 1.56 µg/mL (≈ 2.22 µM)

CCC1CC(C)C(=O)C=CC(C)=CC(CSc2ccccc2)C(CC)OC(=O)CC(O)C(C)C1OC1OC(C)C(O)C(N(C)C)C1O (stereo not drawn) [Compound 42, 23-Phenylthio-20,23-dideoxy-20-dihydro-OMT]
MIC [1]: 1 µg/mL (≈ 1.48 µM) | MIC [2]: 1 µg/mL (≈ 1.48 µM) | MIC [3]: 0.12 µg/mL (≈ 0.178 µM) | MIC (Escherichia coli TEM; agar-dilution, Escherichia coli TEM, read-out: MIC): > 128 µg/mL | MIC ([4]; agar-dilution, Klebsiella pneumoniae X26, read-out: MIC): 16 µg/mL (≈ 23.7 µM) | MIC ([5]; agar-dilution, Staphylococcus aureus V41, Penicillin-resistant strain, read-out: MIC): 0.5 µg/mL (≈ 0.74 µM) | MIC ([6]; agar-dilution, Klebsiella pneumoniae KAE, read-out: MIC): > 128 µg/mL | MIC ([7]; agar-dilution, Streptococcus Group D X66, read-out: MIC): 0.5 µg/mL (≈ 0.74 µM) | MIC [8]: 1 µg/mL (≈ 1.48 µM) | MIC (Escherichia coli EC14; agar-dilution, Escherichia coli EC14, read-out: MIC): > 128 µg/mL | MIC [9]: 1 µg/mL (≈ 1.48 µM) | MIC ([10]; agar-dilution, Staphylococcus epidermidis EPI1, read-out: MIC): 0.5 µg/mL (≈ 0.74 µM) | MIC [11]: 1 µg/mL (≈ 1.48 µM) | MIC [12]: 16 µg/mL (≈ 23.7 µM) | MIC [13]: 1 µg/mL (≈ 1.48 µM) | MIC [14]: 16 µg/mL (≈ 23.7 µM) | ED50 ([15]; C203, mice, oral, mg/kg × 2, doses given 1 and 4 hours postinfection, read-out: ED50 Oral): 78 mg/kg | ED50 [15, 26]: > 25 mg/kg | MIC ([16]; broth-dilution microtiter, Pasteurella hemolytica 22C, read-out: MIC): 25 µg/mL (≈ 37 µM) | MIC ([17]; broth-dilution microtiter, Mycoplasma gallisepticum 34159, Resistant strain, read-out: MIC): 25 µg/mL (≈ 37 µM) | MIC (Mycoplasma synoviae): 6.25 µg/mL (≈ 9.25 µM) | MIC ([18]; broth-dilution microtiter, Mycoplasma gallisepticum 41313, Resistant strain, read-out: MIC): 25 µg/mL (≈ 37 µM) | MIC ([19]; broth-dilution microtiter, Pasteurella hemolytica 23C, read-out: MIC): 25 µg/mL (≈ 37 µM) | MIC ([20]; broth-dilution microtiter, Pasteurella hemolytica 41D, read-out: MIC): 25 µg/mL (≈ 37 µM) | MIC (Mycoplasma gallisepticum): 6.25 µg/mL (≈ 9.25 µM) | MIC ([21]; broth-dilution microtiter, Pasteurella multocida 40G, read-out: MIC): 25 µg/mL (≈ 37 µM) | MIC ([22]; broth-dilution microtiter, Pasteurella multocida 60A, Avian isolate, read-out: MIC): 12.5 µg/mL (≈ 18.5 µM) | MIC (Staphylococcus aureus; broth-dilution microtiter, read-out: MIC): 1.56 µg/mL (≈ 2.31 µM) | MIC ([23]; broth-dilution microtiter, Pasteurella multocida 22A, read-out: MIC): 25 µg/mL (≈ 37 µM) | MIC (Mycoplasma hyorhinis; broth-dilution microtiter, Mycoplasma hyorhinis, read-out: MIC): 25 µg/mL (≈ 37 µM) | MIC ([24]; broth-dilution microtiter, Pasteurella multocida 68C, read-out: MIC): 25 µg/mL (≈ 37 µM) | MIC ([25]; broth-dilution microtiter, Pasteurella multocida 17E, Bovine isolate, read-out: MIC): 25 µg/mL (≈ 37 µM) | MIC (Streptococcus sp. 80; broth-dilution microtiter, Streptococcus sp. 80, read-out: MIC): 1.56 µg/mL (≈ 2.31 µM)

Source: patent publication US4468511A, “C-20- And C-23-Modified macrolide derivatives” (Eli Lilly and Company, priority 1983, dated 1984)
